Columns and labels:
[1] = system: H358 cells (KRAS G12C); test: 3D Cell viability assay in H358 cells (Biological Example 6); assay type: cell-based; details: Homo sapiens, NCI-H358; H358 (KRAS G12C) spheroids, 72 hours
Summary of the method: (§1)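 Tumour spheroids, grown 48 h from 1000 seeded cells in ultra-low attachment wells, receive compound at nine three-fold-spaced concentrations (final DMSO 0.25%) for 72 h at 37 °C, 5% CO2. Viability is measured by luminescence after CTG 3D lysis.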

[2] = system: MKN1 cells (KRAS amplification); test: 3D Cell viability assay in MKN1 cells (Biological Example 6); assay type: cell-based; details: Homo sapiens, MKN-1; MKN (MKN1, KRAS amplification) spheroids, 72 hours
Summary of the method: as §1

[3] = system: KP-2 cells (KRAS G12R); test: Cell-based pERK HTRF assay in KP-2 cells (Biological Example 5); details: KP-2 (KRAS G12R) cells
Method: (§2) Biological Example 5: Cell-based PERK HTRF assay in AsPC-1, SW1900, HPAC, Capan-2, RKN, H358, HCT116, KP-2, H1573, A549, MKN1, and HT1080 cells
(§3) The inhibition of ERK phosphorylation, as measured using the HTRF Advanced Phospho-ERK 1/2 (Thr202/Tyr204) Detection Assay kit (Perkin Elmer), was used to determine the effectiveness of test compounds in disrupting KRAS-driven protein/effector signaling in cells.
(§4) On day 1, cells were seeded into 96-well plates at 2.5×10^4 cells/well in 100 μL of complete growth media supplemented with 10% fetal bovine serum (FBS) and incubated at 37° C., in the presence of 5% CO2.
(§5) On day 2, cells were treated with compounds diluted in DMSO at 0.25% final DMSO concentration. Compounds were dosed in a 9-point concentration curve with three-fold dilution between concentrations. Cells were incubated in the presence of compound for two hours at 37° C. Following this treatment period, cells were harvested by aspirating the media, adding 40 μL of kit-supplied 1x lysis buffer per well, and shaking for 30 minutes at 250 rpm at room temperature.
(§6) Following cell lysis, samples were homogenized by pipetting up and down twenty times and 16 μL of cell lysate per well was transferred from the 96-well cell culture plate to two wells of a 384-well detection plate. A complete detection buffer was prepared by diluting D2 and Eu Cryptate antibodies 1:20 in kit-provided detection solution, 4 μL of complete detection buffer was then added to each well with lysate. Plates were incubated with gentle rocking for 24 hours at 4° C.
(§7) Following this incubation period, plates were centrifuged at 500×g for one minute and analyzed on a CLARIOstar plate reader. Data was imported into Microsoft Excel and the signal from the 665 nm channel was divided by the signal from the 620 nm channel. % pERK was calculated as: […]
(§8) Data was imported to the Prism software package (Graphpad) and EC50 values were calculated using the log (inhibitor) vs, response—variable slopc (Four parameters) model.

[4] = system: H1573 cells (KRAS G12A); test: Cell-based pERK HTRF assay in H1573 cells (Biological Example 5); details: Homo sapiens, NCI-H1573
Method: as §2, §3, §4, §5, §6, §7, §8

[5] = system: AsPC-1 cells (KRAS G12D); test: Cell-based pERK HTRF assay in AsPC-1 cells (Biological Example 5); details: Homo sapiens, ASPC1, AsPC-1 (KRAS G12D) cells
Summary of the method: (§9)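 To gauge disruption of KRAS-driven signalling, pERK1/2 (Thr202/Tyr204) was quantified by time-resolved FRET in lysates of cells exposed 2 h at 37° C to a 9-point dose series. Signal ratio 665/620 nm was converted to % pERK for four-parameter EC50 fitting.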

[6] = system: HT1080 cells (NRAS); test: Cell-based pERK HTRF assay in HT1080 cells (Biological Example 5); details: Homo sapiens, HT-1080
Summary of the method: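 A two-hour compound treatment (0.25% DMSO) of cells seeded the previous day preceded lysis and HTRF phospho-ERK1/2 detection. EC50 values were fitted by variable-slope four-parameter regression.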

[7] = system: SW1900 cells (KRAS G12D); test: 3D Cell viability assay in SW1900 cells (Biological Example 6); assay type: cell-based; details: Homo sapiens; SW1990 (text: SW1900, KRAS G12D) spheroids, 72 hours
Summary of the method: as §1

[8] = system: AsPC-1 cells (KRAS G12D); test: 3D Cell viability assay in AsPC-1 cells (Biological Example 6); assay type: cell-based; details: Homo sapiens, ASPC1; AsPC-1 (KRAS G12D) spheroids, 72 hours
Summary of the method: as §1

[9] = system: Capan-2 cells (KRAS G12V); test: Cell-based pERK HTRF assay in Capan-2 cells (Biological Example 5); details: Homo sapiens, Capan-2, Capan-2 (KRAS G12V) cells
Summary of the method: as §9

[10] = system: HCT116 cells (KRAS G13D); test: Cell-based pERK HTRF assay in HCT116 cells (Biological Example 5); details: Homo sapiens, HCT-116
Summary of the method: as §9

[11] = system: HT1080 cells (NRAS); test: 3D Cell viability assay in HT1080 cells (Biological Example 6); assay type: cell-based; details: Homo sapiens, HT-1080; HT1080 (NRAS) spheroids, 72 hours
Summary of the method: as §1

[12] = system: HPAC cells (KRAS G12D); test: Cell-based pERK HTRF assay in HPAC cells (Biological Example 5); details: Homo sapiens, HPAC
Summary of the method: as §9

[13] = system: RKN cells (KRAS G12V); test: 3D Cell viability assay in RKN cells (Biological Example 6); assay type: cell-based; details: RKN (KRAS G12V) spheroids, 72 hours
Summary of the method: as §1

[14] = system: HCT116 cells (KRAS G13D); test: 3D Cell viability assay in HCT116 cells (Biological Example 6); assay type: cell-based; details: Homo sapiens, HCT-116; HCT116 (KRAS G13D) spheroids, 72 hours
Summary of the method: as §1

[15] = system: RKN cells (KRAS G12V); test: Cell-based pERK HTRF assay in RKN cells (Biological Example 5)
Summary of the method: as §9

| SMILES | IC50 [1] [nM] | IC50 [2] [nM] | IC50 [3] [nM] | IC50 [4] [nM] | IC50 [5] [nM] | IC50 [6] [nM] | IC50 [7] [nM] | IC50 [8] [nM] | IC50 [9] [nM] | IC50 [10] [nM] | IC50 [11] [nM] | IC50 [12] [nM] | IC50 [13] [nM] | IC50 [14] [nM] | IC50 [15] [nM] |
| --- | --- | --- | --- | --- | --- | --- | --- | --- | --- | --- | --- | --- | --- | --- | --- |
| CCN(c1nc(OC[C@@]23CCCN2C[C@H](F)C3)nc2c(F)c(-c3ccc(F)c4sc(N)c(C#N)c34)c(C(F)(F)F)cc12)[C@H]1CCN(C(=O)N(C)C)C1 (atropisomer, axis not shown) [Compound 540, (3S)-3-[[7-(2-amino-3-cyano-7-fluoro-benzothiophen-4-yl)-8-fluoro-2-[[(2R,8S)-2-fluoro-1,2,3,5,6,7-hexahydropyrrolizin-8-yl]methoxy]-6-(trifluoromethyl)quinazolin-4-yl]-ethyl-amino]-N,N-dimethyl-pyrrolidine-1-carboxamide] | ≤ 100 | ≤ 100 | ≤ 100 | ≤ 100 | 100 to 1000 | > 1000 | ≤ 100 | 100 to 1000 | ≤ 100 | ≤ 100 | > 1000 | ≤ 100 |  |  |  |
| CCN(c1nc(OC[C@@]23CCCN2C[C@H](F)C3)nc2c(F)c(-c3ccc(F)c4sc(N)c(C#N)c34)c(C(F)(F)F)cc12)[C@@H]1CCN(C(=O)C2CC2)[C@@H]1C (atropisomer, axis not shown) [Compound 524] | ≤ 100 | ≤ 100 | ≤ 100 | ≤ 100 | 100 to 1000 | > 1000 | ≤ 100 | 100 to 1000 | ≤ 100 | ≤ 100 | > 1000 | ≤ 100 |  |  |  |
| CCN(c1nc(OC[C@@]23CCCN2C[C@H](F)C3)nc2c(F)c(-c3ccc(F)c4sc(N)c(C#N)c34)c(C(F)(F)F)cc12)[C@H]1CCN(C(=O)OC)C1 (atropisomer, axis not shown) [Compound 541, methyl(3S)-3-[[7-(2-amino-3-cyano-7-fluoro-benzothiophen-4-yl)-8-fluoro-2-[[(2R,8S)-2-fluoro-1,2,3,5,6,7-hexahydropyrrolizin-8-yl]methoxy]-6-(trifluoromethyl)quinazolin-4-yl]-ethyl-amino]pyrrolidine-1-carboxylate] | ≤ 100 | ≤ 100 | 100 to 1000 | ≤ 100 | ≤ 100 | > 1000 | ≤ 100 | ≤ 100 | ≤ 100 | ≤ 100 | > 1000 | ≤ 100 | ≤ 100 | 100 to 1000 | ≤ 100 |
| Cc1c(C(=O)N(C)C)nn2c1CN(c1nc(OC[C@@]34CCCN3C[C@H](F)C4)nc3c(F)c(-c4ccc(F)c5sc(N)c(C#N)c45)c(C(F)(F)F)cc13)CC2 [Compound 501] | ≤ 100 | ≤ 100 | 100 to 1000 | 100 to 1000 | ≤ 100 |  | ≤ 100 | ≤ 100 | ≤ 100 | 100 to 1000 |  | ≤ 100 | ≤ 100 |  | ≤ 100 |
| CCN(c1nc(OC[C@@]23CCCN2C[C@H](F)C3)nc2c(F)c(-c3ccc(F)c4sc(N)c(C#N)c34)c(C(F)(F)F)cc12)[C@H]1CCN(C(=O)C(C)C)C1 (single isomer, unassigned) [Compound 469] | ≤ 100 | ≤ 100 | 100 to 1000 | ≤ 100 | ≤ 100 | > 1000 | ≤ 100 | ≤ 100 | ≤ 100 | ≤ 100 | > 1000 | 100 to 1000 | ≤ 100 |  | ≤ 100 |

Source: patent US20260042764A1, “COMPOSITIONS AND METHODS FOR INHIBITION OF KRAS” (TheRas, Inc., priority 2022, published 2026)
